Where two headings read alike, the source gives them in different places.
How the values were obtained:
Format in all cases: cell-based
[1] = tested on: Balamuthia mandrillaris trophozoites; experiment: CellTiter-Glo 2.0 trophocidal assay, B. mandrillaris; conditions: for IC50: 72 h, CTG method, duplicate twofold serial dilutions from 10 µM, mean ± SD; for Selectivity Index (A549 IC50/B. mandrillaris IC50): SI = (IC50 A549)/(IC50 Amoeba)
Procedure: Pathogenic Balamuthia mandrillaris (CDC:[…]; American Type Culture Collection (ATCC) 50209), a GAE isolate, isolated from a pregnant baboon at the San Diego Zoo in 1986 was donated by Luis Fernando […] University, Mexico [43]. Trophozoites were routinely grown axenically in Balamuthia mandrillaris Itson (BMI) media at 37 °C, 5% CO2 in vented 75 cm^2 tissue culture flasks (Olympus, El Cajon, CA, USA), until the cells were 80-90% confluent. For sub-culturing, 0.25% Trypsin-EDTA (Gibco, Gaithersburg, MD, USA) cell detachment reagent was used to detach the cells from the culture flasks. The cells were collected by centrifugation at 4000 rpm at 4 °C. Complete BMI media is produced by the addition of 10% fetal bovine serum (FBS) and 125 μg of penicillin/streptomycin antibiotics. The trophocidal activity of compounds was assessed using the CellTiter-Glo 2.0 luminescent viability assay (Promega, Madison, WI, USA), as previously described. Trophozoites were routinely cultured as described above and only logarithmic trophozoites were used. […] Inhibitors were assessed for percent inhibition using the criteria of ≤33% growth inhibition (no inhibition), 33-67% growth inhibition (moderate inhibition), and ≥67% growth inhibition (strong inhibition). […] We used this process to reduce the number of potential false positives. […] All assays were incubated at each of the parasites' representative growth temperatures, described above, for 72 h. At the 72 h time point, 25 μL of CellTiter-Glo 2.0 reagent was added to all wells of the 96-well plates using the Biomek NX^P automated workstation. The plates were protected from light and contents were mixed using an orbital shaker at 300 rpm at room temperature for 2 min to induce cell lysis. After shaking, the plates were equilibrated at room temperature for 10 min to stabilize the luminescent signal. The adenosine triphosphate (ATP) luminescent signal (relative light units; RLUs) was measured at 490 nm with a SpectraMax I3X plate reader (Molecular Devices, Sunnyvale, CA, USA). Drug inhibitory concentration (IC50) curves were generated using total ATP RLUs, where controls were calculated as the average of replicates using the Levenberg-Marquardt algorithm, using DMSO as the normalization control, as defined in Collaborative Drug Discovery Inc. (CDD) Vault (Burlingame, CA, USA). Values reported are from a minimum of two biological replicates with standard deviations.

[2] = tested on: Naegleria fowleri trophozoites; experiment: CellTiter-Glo 2.0 trophocidal assay, N. fowleri; conditions: for IC50: 72 h, CTG method, duplicate twofold serial dilutions from 10 µM, mean ± SD, read-out: N. fowleri Mean IC50 (µM) ± SD; for Selectivity Index (A549 IC50/N. fowleri IC50): SI = (IC50 A549)/(IC50 Amoeba); for potency against N. fowleri, in words: dose-response, CTG
Procedure: Pathogenic Naegleria fowleri (ATCC 30215), a clinical isolate obtained from a child in Adelaide, Australia, that died of PAM in 1969 was previously purchased from the American Type Culture Collection (ATCC). Trophozoites were routinely grown axenically at 34 °C in Nelson’s complete medium (NCM) in non-vented 75 cm^2 tissue culture flasks (Olympus, El Cajon, CA, USA), until the cells were 80–90% confluent. For sub-culturing, cells were placed on ice to detach the cells from the culture flasks. The cells were collected by centrifugation at 4000 rpm at 4 °C. Complete NCM media is produced by the addition of 10% FBS and 125 μg of penicillin/streptomycin antibiotics.
The trophocidal activity of compounds was assessed using the CellTiter-Glo 2.0 luminescent viability assay (Promega, Madison, WI, USA), as previously described. Trophozoites were routinely cultured as described above and only logarithmic trophozoites were used. In brief, B. mandrillaris, N. fowleri, or A. castellanii trophozoites cultured in their corresponding media were seeded at 16,000, 3000, or 1440 cells/well into white 96-well plates (Costar 3370), respectively. Initially all compounds were assessed in a single-point drug screen at 10 and 1 μM, as previously described. […] Control wells were supplemented with 0.1% (10 μM screening plate) or 0.01% (1 μM screening plate) DMSO, as the negative controls, or 12.5 μM of chlorhexidine, as the positive control. Following the single-point assays at 10 and 1 µM, we prioritized compounds for progression to IC50 determinations. […] We used this process to reduce the number of potential false positives. Drugs were cherry-picked, dissolved in the media specific to each parasite, and assessed in twofold serial dilutions from the highest concentration of 10 μM. All assays were incubated at each of the parasites’ representative growth temperatures, described above, for 72 h. At the 72 h time point, 25 μL of CellTiter-Glo 2.0 reagent was added to all wells of the 96-well plates using the Biomek NX^P automated workstation. The plates were protected from light and contents were mixed using an orbital shaker at 300 rpm at room temperature for 2 min to induce cell lysis. After shaking, the plates were equilibrated at room temperature for 10 min to stabilize the luminescent signal. The adenosine triphosphate (ATP) luminescent signal (relative light units; RLUs) was measured at 490 nm with a SpectraMax I3X plate reader (Molecular Devices, Sunnyvale, CA, USA). Drug inhibitory concentration (IC50) curves were generated using total ATP RLUs, where controls were calculated as the average of replicates using the Levenberg–Marquardt algorithm, using DMSO as the normalization control, as defined in Collaborative Drug Discovery Inc. (CDD) Vault (Burlingame, CA, USA). Values reported are from a minimum of two biological replicates with standard deviations.

[3] = tested on: A549 human lung carcinoma cells; experiment: MTS cytotoxicity counter-screen of reconfirmed hits; conditions: Homo sapiens
Procedure: Cytotoxicity of the reconfirmed hits was determined by using the CellTiter 96® AQueous One Solution Cell Proliferation Assay (Promega, Madison, WI) on A549 human lung carcinoma cells. A549 cells were seeded at a concentration of 1.6 × 10^4 cells/mL in 96-well tissue culture plates (Corning, NY, USA), in the presence of serially diluted active hits against B. mandrillaris, N. fowleri, or A. castellanii. Positive control wells contained cells and media; negative control wells contained 0.1% DMSO. Cells were grown in F12K medium supplemented with 10% FBS and 1% gentamycin (all supplied from Fisher Scientific, Atlanta, GA, USA). The inhibitor concentration started at 10 µM and was diluted in doubling dilutions to assess cytotoxicity in comparison to the respective free-living amoeba. Total volume of each well was 100 µL and plates were incubated at 37 °C, 5% CO2 for 72 h. Next, 4 h before the time-point, 20 µL of MTS (Promega, Madison, WI, USA) was added to each well. Inhibition of A549 growth was assessed at the 72 h time-point measuring the optical density (OD) values at 490 nm using a SpectraMax I3X plate reader (Molecular Devices, Sunnyvale, CA, USA). Curve fitting using non-linear regression was carried out using the average of replicates and the Levenberg–Marquardt algorithm, using DMSO as the normalization control, as defined in CDD Vault (Burlingame, CA, USA).

[4] = A549, MTS assay, 72 h, doubling dilutions from 10 µM, read-out: A549 Mean IC50

SMILES	IC50 ([1]; Balamuthia mandrillaris) [µM]	IC50 [1] [µM]	Selectivity Index (A549 IC50/B. mandrillaris IC50) [1]	IC50 ([2]; Naegleria fowleri) [µM]	Selectivity Index (A549 IC50/N. fowleri IC50) [2]	IC50 [3, 4] [µM]	Selectivity Index (A549 IC50/N. fowleri IC50) ([2]; listed as ravuconazole)	potency against N. fowleri, in words [2]	IC50 ([2]; listed as butenafine) [µM]	IC50 [2] [µM]	potency against B. mandrillaris, in words ([1]; dose-response, CTG)	Selectivity Index (A549 IC50/N. fowleri IC50) ([2]; listed as terbinafine)	IC50 ([3]; A549, 72 h, read-out: A549 Mean IC50 (µM)) [µM]
CC(=O)Oc1ccccc1C(=O)Nc1ncc([N+](=O)[O-])s1 [Nitazoxanide]	≤ 10	8.6 ± 1.98	≥1.16	3.6	≥2.78	> 10	–	–	–	–	–	–	–
C[C@@H](c1nc(-c2ccc(C#N)cc2)cs1)[C@](O)(Cn1cncn1)c1ccc(F)cc1F [Ravuconazole]	> 10	–	–	0.05 ± 0.02	–	> 10	≥ 10	nanomolar potency	–	–	–	–	–
CN(Cc1ccc(C(C)(C)C)cc1)Cc1cccc2ccccc12 [Butenafine]	> 10	–	–	–	≥9.52	> 10	–	–	≤ 10	1.05 ± 0.35	–	–	–
Cc1[nH]c2ccccc2c1CCNCc1ccc(/C=C/C(=O)NO)cc1 [Panobinostat]	0.39 ± 0.04	–	<0.79	0.22 ± 0.06	<1.44	< 0.31	–	nanomolar potency	–	–	nanomolar potency	–	–
CN(C/C=C/C#CC(C)(C)C)Cc1cccc2ccccc12 [Terbinafine]	> 10	–	–	0.79 ± 0.7	≥12.7	–	–	nanomolar potency	–	–	–	≥ 10	> 10

Reference: article PMC7344389, “Discovery of Anti-Amoebic Inhibitors from Screening the MMV Pandemic Response Box on Balamuthia mandrillaris, Naegleria fowleri, and Acanthamoeba castellanii” (Pathogens, 2020)
